Columns and labels:
[1] = biological target: Histamine H2 receptor (Homo sapiens) (UniProt P25021); experiment: Inhibition of H2 receptor (unknown origin); conditions: concentration not given here
[2] = biological target: Delta-type opioid receptor (Homo sapiens) (UniProt P41143); experiment: Inhibition of DOR receptor (unknown origin); conditions: concentration not given here
[3] = biological target: D(1A) dopamine receptor (Homo sapiens) (UniProt P21728); experiment: Inhibition of D1 receptor (unknown origin); conditions: concentration not given here
Chain of D(1A) dopamine receptor (Homo sapiens) (P21728 whole entry): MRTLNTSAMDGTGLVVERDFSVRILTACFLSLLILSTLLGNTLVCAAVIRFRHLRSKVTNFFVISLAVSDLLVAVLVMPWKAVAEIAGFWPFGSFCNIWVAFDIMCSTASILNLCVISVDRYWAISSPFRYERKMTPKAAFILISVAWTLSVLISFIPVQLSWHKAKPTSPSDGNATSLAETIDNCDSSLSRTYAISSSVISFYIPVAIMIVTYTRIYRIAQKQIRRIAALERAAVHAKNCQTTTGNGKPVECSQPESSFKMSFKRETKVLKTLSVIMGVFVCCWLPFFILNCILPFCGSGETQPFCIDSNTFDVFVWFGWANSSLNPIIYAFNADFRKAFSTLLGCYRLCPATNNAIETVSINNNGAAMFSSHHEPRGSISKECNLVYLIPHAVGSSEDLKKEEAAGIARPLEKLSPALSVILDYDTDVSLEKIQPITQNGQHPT

[4] = biological target: Histamine H1 receptor (Homo sapiens) (UniProt P35367); experiment: Inhibition of H1 receptor (unknown origin); conditions: concentration not given here
Chain of Histamine H1 receptor (Homo sapiens) (P35367 whole entry): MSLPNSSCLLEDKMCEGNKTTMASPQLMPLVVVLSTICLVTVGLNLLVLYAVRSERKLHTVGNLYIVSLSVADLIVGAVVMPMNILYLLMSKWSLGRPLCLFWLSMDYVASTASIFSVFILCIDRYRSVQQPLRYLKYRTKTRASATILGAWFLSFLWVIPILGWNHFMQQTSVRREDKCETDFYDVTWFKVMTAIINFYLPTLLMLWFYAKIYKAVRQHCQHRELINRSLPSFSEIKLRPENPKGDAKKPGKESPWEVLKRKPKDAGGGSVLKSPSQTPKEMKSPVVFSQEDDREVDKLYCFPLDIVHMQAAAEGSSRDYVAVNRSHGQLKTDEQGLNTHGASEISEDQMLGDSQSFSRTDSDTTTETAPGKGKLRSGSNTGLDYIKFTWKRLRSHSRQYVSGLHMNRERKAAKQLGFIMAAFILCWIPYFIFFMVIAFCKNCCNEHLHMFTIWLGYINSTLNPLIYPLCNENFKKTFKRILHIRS

[5] = biological target: 5-hydroxytryptamine receptor 6 (Homo sapiens, UniProt P50406); experiment: Binding affinity to 5HT6 receptor (unknown origin) assessed as inhibition constant
Chain of 5-hydroxytryptamine receptor 6 (P50406 whole entry): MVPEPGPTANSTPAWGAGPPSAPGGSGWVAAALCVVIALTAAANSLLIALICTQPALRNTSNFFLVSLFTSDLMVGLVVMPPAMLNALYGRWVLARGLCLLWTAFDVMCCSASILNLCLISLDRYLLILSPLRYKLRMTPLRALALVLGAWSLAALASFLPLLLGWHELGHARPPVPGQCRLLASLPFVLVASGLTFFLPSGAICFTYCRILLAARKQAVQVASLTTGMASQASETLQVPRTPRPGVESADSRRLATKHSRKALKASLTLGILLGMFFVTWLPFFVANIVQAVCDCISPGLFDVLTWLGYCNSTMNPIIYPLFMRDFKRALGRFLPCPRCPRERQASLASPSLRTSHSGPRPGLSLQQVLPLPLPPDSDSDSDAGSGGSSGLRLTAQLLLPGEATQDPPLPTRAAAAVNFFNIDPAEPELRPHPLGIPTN

[6] = biological target: T1, Alpha-2C adrenergic receptor (Homo sapiens) (UniProt P18825); experiment: Inhibition of alpha2c (unknown origin); conditions: concentration not given here
T1 sequence (whole entry): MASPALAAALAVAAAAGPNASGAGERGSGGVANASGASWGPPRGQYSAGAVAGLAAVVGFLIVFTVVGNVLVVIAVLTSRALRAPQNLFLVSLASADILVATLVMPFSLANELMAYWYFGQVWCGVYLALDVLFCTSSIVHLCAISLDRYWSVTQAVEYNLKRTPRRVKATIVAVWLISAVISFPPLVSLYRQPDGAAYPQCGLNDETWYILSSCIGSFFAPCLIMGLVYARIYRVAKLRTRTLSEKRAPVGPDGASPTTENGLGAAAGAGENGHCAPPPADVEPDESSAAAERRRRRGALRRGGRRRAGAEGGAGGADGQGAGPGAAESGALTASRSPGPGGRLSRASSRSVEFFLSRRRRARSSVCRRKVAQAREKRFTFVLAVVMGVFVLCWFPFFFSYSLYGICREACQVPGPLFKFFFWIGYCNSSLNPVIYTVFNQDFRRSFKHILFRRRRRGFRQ

[7] = biological target: 5-hydroxytryptamine receptor 2B (Homo sapiens, UniProt P41595); experiment: Agonist activity at human 5HT2B receptor stably expressed in Flp-In-T-REx-293 cells assessed as maximal Gq-mediated calcium flux by Fluo-4 direct dye based FLIPR Tetra assay relative to control; type: functional, cell-based; conditions: filed as agonist
Chain of 5-hydroxytryptamine receptor 2B (P41595 whole entry): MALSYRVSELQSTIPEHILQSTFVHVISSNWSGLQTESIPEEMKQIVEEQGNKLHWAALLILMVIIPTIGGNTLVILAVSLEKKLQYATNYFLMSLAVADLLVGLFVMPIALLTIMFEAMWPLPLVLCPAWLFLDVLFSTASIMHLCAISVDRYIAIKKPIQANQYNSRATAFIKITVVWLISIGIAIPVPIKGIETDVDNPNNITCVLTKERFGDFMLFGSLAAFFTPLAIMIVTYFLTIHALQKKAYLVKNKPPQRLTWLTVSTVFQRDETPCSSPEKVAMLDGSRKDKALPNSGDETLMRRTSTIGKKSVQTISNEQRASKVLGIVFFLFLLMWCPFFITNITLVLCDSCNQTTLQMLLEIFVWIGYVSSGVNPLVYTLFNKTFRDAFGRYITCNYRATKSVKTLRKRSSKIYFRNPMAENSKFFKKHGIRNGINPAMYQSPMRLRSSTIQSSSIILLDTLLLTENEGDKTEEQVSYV

[8] = biological target: T2, 5-hydroxytryptamine receptor 1A (Homo sapiens, UniProt P08908); experiment: Binding affinity to 5HT1A receptor (unknown origin) assessed as inhibition constant
T2 sequence (P08908 whole entry): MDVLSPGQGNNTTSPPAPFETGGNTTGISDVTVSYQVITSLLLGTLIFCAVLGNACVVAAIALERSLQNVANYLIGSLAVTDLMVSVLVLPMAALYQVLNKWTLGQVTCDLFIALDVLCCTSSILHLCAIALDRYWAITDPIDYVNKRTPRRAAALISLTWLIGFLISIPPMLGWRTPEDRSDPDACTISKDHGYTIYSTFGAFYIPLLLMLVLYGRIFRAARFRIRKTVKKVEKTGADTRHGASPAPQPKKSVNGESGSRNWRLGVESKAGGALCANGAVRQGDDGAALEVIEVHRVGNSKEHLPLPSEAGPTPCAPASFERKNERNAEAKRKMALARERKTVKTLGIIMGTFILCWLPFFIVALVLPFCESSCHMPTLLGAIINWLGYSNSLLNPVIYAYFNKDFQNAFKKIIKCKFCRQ

[9] = biological target: D(1B) dopamine receptor (Homo sapiens) (UniProt P21918); experiment: Inhibition of D5 receptor (unknown origin); conditions: concentration not given here
Chain of D(1B) dopamine receptor (Homo sapiens) (P21918 whole entry): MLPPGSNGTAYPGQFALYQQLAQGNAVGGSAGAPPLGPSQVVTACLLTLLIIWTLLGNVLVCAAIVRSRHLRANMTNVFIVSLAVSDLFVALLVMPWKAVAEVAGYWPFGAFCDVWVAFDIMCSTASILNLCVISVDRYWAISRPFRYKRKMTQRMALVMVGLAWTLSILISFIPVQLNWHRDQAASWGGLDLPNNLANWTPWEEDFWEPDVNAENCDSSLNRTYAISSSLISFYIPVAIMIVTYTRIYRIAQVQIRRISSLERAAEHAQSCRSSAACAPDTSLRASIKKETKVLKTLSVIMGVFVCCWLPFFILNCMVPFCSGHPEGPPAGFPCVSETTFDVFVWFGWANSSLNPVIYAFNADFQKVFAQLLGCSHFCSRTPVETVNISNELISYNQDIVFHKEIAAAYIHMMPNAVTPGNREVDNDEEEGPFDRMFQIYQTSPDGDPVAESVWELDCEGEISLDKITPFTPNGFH

[10] = biological target: 5-hydroxytryptamine receptor 1D (Homo sapiens, UniProt P28221); experiment: Binding affinity to 5HT1D receptor (unknown origin) assessed as inhibition constant
Chain of 5-hydroxytryptamine receptor 1D (P28221 whole entry): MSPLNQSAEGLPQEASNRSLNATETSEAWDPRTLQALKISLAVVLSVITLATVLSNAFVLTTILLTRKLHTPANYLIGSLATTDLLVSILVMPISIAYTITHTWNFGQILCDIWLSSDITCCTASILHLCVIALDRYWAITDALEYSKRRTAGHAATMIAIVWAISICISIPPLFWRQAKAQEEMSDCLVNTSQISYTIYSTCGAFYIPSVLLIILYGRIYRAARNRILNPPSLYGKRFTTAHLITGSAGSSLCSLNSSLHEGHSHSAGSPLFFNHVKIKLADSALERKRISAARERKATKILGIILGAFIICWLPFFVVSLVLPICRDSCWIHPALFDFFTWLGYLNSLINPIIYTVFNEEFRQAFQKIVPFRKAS

[11] = biological target: T3, 5-hydroxytryptamine receptor 2C (Homo sapiens) (UniProt P28335); experiment: Agonist activity at human 5HT2C receptor stably expressed in Flp-In-T-REx-293 cells assessed as maximal Gq-mediated calcium flux by Fluo-4 direct dye based FLIPR Tetra assay relative to control; type: functional, cell-based; conditions: filed as agonist
T3 sequence (whole entry): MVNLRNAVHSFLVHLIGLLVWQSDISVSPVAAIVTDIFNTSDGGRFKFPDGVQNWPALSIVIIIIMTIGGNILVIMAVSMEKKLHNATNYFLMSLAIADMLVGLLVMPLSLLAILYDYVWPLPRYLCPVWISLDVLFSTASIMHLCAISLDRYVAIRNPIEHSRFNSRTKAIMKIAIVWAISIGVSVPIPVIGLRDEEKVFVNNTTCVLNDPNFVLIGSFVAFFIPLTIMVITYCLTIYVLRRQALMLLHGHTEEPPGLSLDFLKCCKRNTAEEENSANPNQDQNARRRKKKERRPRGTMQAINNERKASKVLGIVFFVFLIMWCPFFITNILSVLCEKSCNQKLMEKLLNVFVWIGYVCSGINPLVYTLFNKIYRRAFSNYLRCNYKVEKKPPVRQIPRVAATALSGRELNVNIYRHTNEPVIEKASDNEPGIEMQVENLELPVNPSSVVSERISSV

[12] = biological target: T4, Alpha-1D adrenergic receptor (Homo sapiens) (UniProt P25100); experiment: Inhibition of alpha1D receptor (unknown origin); conditions: concentration not given here
T4 sequence (whole entry): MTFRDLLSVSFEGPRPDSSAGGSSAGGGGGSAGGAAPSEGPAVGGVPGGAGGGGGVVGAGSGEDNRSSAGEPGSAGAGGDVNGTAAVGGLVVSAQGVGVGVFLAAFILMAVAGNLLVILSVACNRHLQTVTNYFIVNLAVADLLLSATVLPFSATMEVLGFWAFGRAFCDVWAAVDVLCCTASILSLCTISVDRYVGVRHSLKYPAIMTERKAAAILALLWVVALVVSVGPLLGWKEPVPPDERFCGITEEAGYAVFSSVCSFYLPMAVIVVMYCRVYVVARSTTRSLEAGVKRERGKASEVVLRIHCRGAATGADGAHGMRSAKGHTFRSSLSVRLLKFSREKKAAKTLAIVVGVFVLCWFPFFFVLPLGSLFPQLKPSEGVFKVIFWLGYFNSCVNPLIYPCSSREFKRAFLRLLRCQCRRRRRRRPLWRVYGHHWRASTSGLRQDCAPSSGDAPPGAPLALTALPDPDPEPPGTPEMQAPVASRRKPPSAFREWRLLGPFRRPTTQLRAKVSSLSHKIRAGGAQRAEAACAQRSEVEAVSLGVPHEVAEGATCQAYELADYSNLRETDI

[13] = biological target: T5, 5-hydroxytryptamine receptor 2C (Homo sapiens, UniProt P28335); experiment: Agonist activity at human 5HT2C receptor stably expressed in Flp-In-T-REx-293 cells assessed as increase in Gq-mediated calcium flux by Fluo-4 direct dye based FLIPR Tetra assay; type: functional, cell-based; conditions: read-out: EC50
T5 sequence (P28335 whole entry): T3 sequence (whole entry)

[14] = biological target: T5, 5-hydroxytryptamine receptor 2C; experiment: Binding affinity to 5HT2C receptor (unknown origin) assessed as inhibition constant
[15] = biological target: Sodium-dependent dopamine transporter (Homo sapiens) (UniProt Q01959); experiment: Inhibition of DAT receptor (unknown origin); conditions: concentration not given here
Chain of Sodium-dependent dopamine transporter (Homo sapiens) (Q01959 whole entry): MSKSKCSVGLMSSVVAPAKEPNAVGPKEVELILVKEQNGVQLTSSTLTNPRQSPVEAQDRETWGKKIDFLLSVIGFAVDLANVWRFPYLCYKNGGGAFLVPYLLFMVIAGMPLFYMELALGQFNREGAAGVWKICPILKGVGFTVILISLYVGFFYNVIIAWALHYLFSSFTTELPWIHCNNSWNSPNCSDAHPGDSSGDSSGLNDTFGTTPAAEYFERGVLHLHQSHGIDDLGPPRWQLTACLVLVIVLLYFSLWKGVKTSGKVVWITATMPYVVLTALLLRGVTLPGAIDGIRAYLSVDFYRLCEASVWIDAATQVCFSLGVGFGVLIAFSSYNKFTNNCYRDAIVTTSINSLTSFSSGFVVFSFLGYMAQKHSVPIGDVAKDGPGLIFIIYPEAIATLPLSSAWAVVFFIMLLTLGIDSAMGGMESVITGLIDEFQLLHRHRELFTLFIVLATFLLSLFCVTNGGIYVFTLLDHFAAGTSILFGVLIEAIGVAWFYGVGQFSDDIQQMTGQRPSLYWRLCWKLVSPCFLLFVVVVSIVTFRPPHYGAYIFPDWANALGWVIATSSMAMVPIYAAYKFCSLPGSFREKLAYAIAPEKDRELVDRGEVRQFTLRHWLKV

[16] = biological target: Beta-2 adrenergic receptor (Homo sapiens) (UniProt P07550); experiment: Inhibition of beta 2 receptor (unknown origin); conditions: concentration not given here
Chain of Beta-2 adrenergic receptor (Homo sapiens) (P07550 whole entry, looked up): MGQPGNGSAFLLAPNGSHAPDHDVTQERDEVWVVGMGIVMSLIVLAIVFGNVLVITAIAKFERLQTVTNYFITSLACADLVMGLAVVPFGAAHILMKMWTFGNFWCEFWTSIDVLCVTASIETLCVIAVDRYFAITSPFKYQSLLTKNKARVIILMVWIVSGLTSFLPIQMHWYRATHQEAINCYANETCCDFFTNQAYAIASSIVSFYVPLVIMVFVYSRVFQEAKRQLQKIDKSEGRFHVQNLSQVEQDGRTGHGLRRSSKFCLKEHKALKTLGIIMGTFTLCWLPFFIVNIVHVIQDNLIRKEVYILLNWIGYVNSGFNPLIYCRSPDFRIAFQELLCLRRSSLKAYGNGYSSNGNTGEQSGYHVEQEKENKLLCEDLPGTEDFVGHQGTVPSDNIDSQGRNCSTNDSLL

[17] = biological target: Histamine H3 receptor (Homo sapiens) (UniProt Q9Y5N1); experiment: Inhibition of H3 receptor (unknown origin); conditions: concentration not given here
Chain of Histamine H3 receptor (Homo sapiens) (Q9Y5N1 whole entry): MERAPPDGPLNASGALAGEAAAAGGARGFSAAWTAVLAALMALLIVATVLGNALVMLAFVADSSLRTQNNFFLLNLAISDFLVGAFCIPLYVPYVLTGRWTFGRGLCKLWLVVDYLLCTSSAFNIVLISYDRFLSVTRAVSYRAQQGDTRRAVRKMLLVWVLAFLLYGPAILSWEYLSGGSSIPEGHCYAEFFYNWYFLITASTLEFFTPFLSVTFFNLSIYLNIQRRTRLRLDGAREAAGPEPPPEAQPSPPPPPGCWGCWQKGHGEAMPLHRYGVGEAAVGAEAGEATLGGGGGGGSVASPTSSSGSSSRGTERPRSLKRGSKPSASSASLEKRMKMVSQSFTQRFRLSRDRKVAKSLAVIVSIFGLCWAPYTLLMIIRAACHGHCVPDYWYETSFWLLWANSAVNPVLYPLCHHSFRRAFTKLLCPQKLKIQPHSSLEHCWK

Chain of Histamine H2 receptor (Homo sapiens) (P25021 whole entry): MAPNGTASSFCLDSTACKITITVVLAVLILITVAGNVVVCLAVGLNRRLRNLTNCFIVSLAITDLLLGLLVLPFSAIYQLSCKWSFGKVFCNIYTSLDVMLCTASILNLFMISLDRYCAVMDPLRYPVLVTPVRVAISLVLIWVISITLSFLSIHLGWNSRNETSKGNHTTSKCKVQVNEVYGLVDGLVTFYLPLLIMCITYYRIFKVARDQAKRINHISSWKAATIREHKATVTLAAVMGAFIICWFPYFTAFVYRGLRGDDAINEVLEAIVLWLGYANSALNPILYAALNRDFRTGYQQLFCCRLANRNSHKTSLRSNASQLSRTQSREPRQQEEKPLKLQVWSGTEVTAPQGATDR
Chain of Delta-type opioid receptor (Homo sapiens) (P41143 whole entry): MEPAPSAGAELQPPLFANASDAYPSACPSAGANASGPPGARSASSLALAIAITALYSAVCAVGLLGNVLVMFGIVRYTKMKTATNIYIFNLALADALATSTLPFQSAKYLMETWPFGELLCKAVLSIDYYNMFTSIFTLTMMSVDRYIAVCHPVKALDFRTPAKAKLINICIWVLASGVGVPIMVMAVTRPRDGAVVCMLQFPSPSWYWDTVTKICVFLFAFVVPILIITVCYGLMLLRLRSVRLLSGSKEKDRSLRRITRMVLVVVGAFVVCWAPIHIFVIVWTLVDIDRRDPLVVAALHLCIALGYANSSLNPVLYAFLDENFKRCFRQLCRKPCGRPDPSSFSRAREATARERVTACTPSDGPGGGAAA

SMILES | inhibition [1] | inhibition [2] | inhibition [3] | inhibition [4] | Ki [5] | inhibition [6] | Emax [7] | Ki [8] | inhibition [9] | Ki [10] | Emax [11] | inhibition [12] | EC50 [13] | Ki [14] | inhibition [15] | inhibition [16] | inhibition [17]
COc1ccc(C2NCCc3c2[nH]c2ccc(Cl)cc32)c(O)c1 (configuration not stated) | < 50% | < 50% | < 50% | < 50% | 47.7 nM | < 50% | 99.4% | 79.9 nM | < 50% | 31.5 nM | 97.2% | < 50% | 8.9 nM | 35.9 nM | < 50% | < 50% | < 50%
COc1cc(OC)c(C2NCCc3c2[nH]c2ccc(Cl)cc32)cc1OC (configuration not stated) | < 50% | < 50% | < 50% | < 50% | 29 nM | < 50% | 96.7% | 22.4 nM | < 50% | 38.8 nM | 97.5% | < 50% | 0.5 nM | 25.2 nM | < 50% | < 50% | < 50%
COc1cc(OC)c(C2NCCc3c2[nH]c2ccc(F)cc32)cc1OC (configuration not stated) | < 50% | < 50% | < 50% | < 50% | 530 nM |  | 106% | 1370 nM | < 50% | 660 nM | 111% | < 50% | 20 nM | 671 nM | < 50% | < 50% | < 50%
COc1ccc(C2NCCc3c2[nH]c2ccc(F)cc32)c(O)c1 (configuration not stated) | < 50% | < 50% | < 50% | < 50% | 68.8 nM | < 50% | 102% | 94.4 nM | < 50% | 110 nM | 105% | < 50% | 1.02 nM | 49.8 nM | < 50% | < 50% | < 50%
